Test results: patent publication US12473295B2, “Substituted straight chain spiro derivatives” (Janssen Pharmaceutica NV, priority 2019, dated 2025)
Structures can show the parent of a compound that is named as a salt. Where two headings read alike, the source gives them in different places.

Experiments:
[1] = tested on: MOLM14 cells; assay: Proliferation assay (spheroid growth, 8 days), MOLM14; assay type: cell-based, human; conditions: MOLM14, 8 days, read-out: spheroid assay_OneTime MOLM14 IC50;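 further: spheroid size read as confluence by live-cell imaging, compounds added at a range of concentrations with 0.3% DMSO, DMSO-treated wells = 0%, highest reference dose = low control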
[2] = tested on: OCI-AML3 cells; assay: Proliferation assay (spheroid growth, 8 days), OCI-AML3; assay type: cell-based, human; conditions: OCI-AML3, 8 days
Method in brief: (§1)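 200 MOLM14 (MLL-AF9), 200 OCI-AML3 (NPM1c) or 300 KO-52 (MLL wildtype) cells were grown as spheroids in ultra-low attachment wells with compound, 0.3% DMSO, for 8 days at 37 °C. Confluence was imaged on day 8, normalized to DMSO and top-dose reference compound. IC50 came from a variable-slope fit constrained 0–100%.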

[3] = tested on: KO-52 cells; assay: Proliferation assay (spheroid growth, 8 days), KO-52 control cell line; assay type: cell-based, human; conditions: read-out: spheroid assay_OneTime KO-52 IC50
Method in brief: as §1

[4] = tested on: MEIS1 mRNA; assay: MEIS1 mRNA expression assay (Quantigene Singleplex) in MOLM14 cells; assay type: cell-based, human; conditions: 48 hours incubation;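 further: MEIS1 transcript levels read by probe hybridization and normalized to RPL28 mRNA, with IC50 fitted to fold changes across a rising compound concentration series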
[5] = tested on: iCell Cardiomyocytes2; assay: Ca2+-fluorescence assay in human pluripotent stem cell-derived cardiomyocytes (CTCM human), iCell Cardiomyocytes2; assay type: cell-based; set-up: key: Green: No concern; Yellow: Low concern; Red: High concern; Black: Very high concern due to arrhythmic events; conditions: 30 min; for Color @ 0.1 μM (hazard score): iCell Cardiomyocytes2, 0.1 μM; for Color @ 0.1 μM (hazard score) / Color @ 1 μM (hazard score): range 0.1-30 μM; for Color @ 0.3 μM (hazard score): iCell Cardiomyocytes2, 0.3 μM; for Color @ 1 μM (hazard score): iCell Cardiomyocytes2, 1 μM; for Color @ 3 μM (hazard score): iCell Cardiomyocytes2, 3 μM; for Color @ 10 μM (hazard score): iCell Cardiomyocytes2, 10 μM; for Color @ 30 μM (hazard score): iCell Cardiomyocytes2, 30 μM
Method: 7) Cardio-Electrophysiological Effects of the Testing Compounds in Synchronously Beating Human Pluripotent Stem Cell-Derived Cardiomyocytes (hSC-CMs) Using a Ca^2+-Fluorescence Assay (CTCM Human)
Compounds were tested in the 96-well plates
Compounds were tested at 0.1 μM, 0.2 μM, 0.5 μM, 1 μM, 2.5 μM and 5 μM (n=4 per dose) on Cor.4U 9-Cardiomyocytes or on iCell® Cardiomyocytes2
Alternatively, compounds were tested at 0.1 μM, 0.3 μM; 1 μM, 3 μM, 10 μM and 30 μM (n=4 per dose) mostly on iCell® Cardiomyocytes2
Dimethylsulfoxide (DMSO). The solutions of the compound in DMSO or its solvent (final concentration of 0.1% DMSO; n=8)
Preparation of Test Article and Controls
Tested compounds were dissolved in DMSO at 1000-fold the intended concentrations. A compound “mother-plate” was made, containing the test compounds and positive and negative controls at 1000-fold the final concentrations. At the experiment day, these stock solutions were diluted with Tyrode (Sigma), supplemented with 10 mM HEPES (Gibco), to 2-fold the intended concentration (in round bottom compound plates). Final DMSO concentration in test solutions and vehicle control was 0.1%.
Second line hSC derived cardiomyocyte called iCell®, Cardiomyocytes2 were purchased from FUJIFILM Cellular Dynamics (USA). The experiments with test drugs are carried out 5 to 7 days after plating the cells onto the plate to have a living, beating monolayer of hiPSC-derived cardiomyocytes. The beating monolayer in 96-well-plates are normally taken from 2 Vials of frozen iCell) Cardiomyocytes2 (≈5 million cells/vial), which will be plated onto […] 96-well plates (≈50K/well).
Before Start of Experiment
At least one hour before the start of the experiments the normal cell medium was replaced with Tyrode solution with Calcium dye (see below).
Cal 520 dye (AAT Bioquest) was dissolved in 11 ml of Tyrode supplemented with 10 mM HEPES and warmed up to 37° C. before adding to the cells.
35 μl cell culture medium was removed from each well and replaced with 35 μl of pre-warmed Cal 520 dye solution and cell plate was incubated for 45 min at 37° C./5% CO2. Cells were incubated for 5 min at 37° C.
Spontaneous electrical activity is recorded, using Cal520™ (AAT Bioquest) calcium fluorescence-dye signaling. This dye integrates the total intracellular calcium activity over the whole well. A bottle of Cal520 dye (50 μg, MW: 1103/mol) is dissolved with 50 μl DMSO as a stock solution of 0.9 mM. 50 μL of the stock solution of the dye was added to 10 ml Tryodes solution to have dye concentration of 4.5 μM. Subsequently, 35 μl of this dye solution was added into each well, to have a final dye concentration of 1.58 μM. The current dye protocol on this CTCM human assay was established recently (Ivan Kopljar et al, Journal of Pharmacological and toxicological methods 2018. 91: 80-86; Lu et al., Tox Sci 2019. 170 (2): 345-356).
Fluorescent signals (Ca^2+ transient morphology) were measured using the Functional Drug Screen System (FDSS/μCell; Hamamatsu, Japan) and the recordings were subsequently analyzed off-line, using appropriate software e.g. Notocord.
The cell plate was loaded into the FDSS/μCell for a test run: Ca^2+ transients were measured for 4 minutes to check for synchronous beating of the cardiomyocytes in each well. All 96 wells were measured simultaneously (sampling interval: 0.06 s, short exposure time: 10 ms; excitation wavelength 480 nm; emission wavelength 540 nm; FDSS/μCell warmed to 37° C.).
During the compound addition step, 100 μl of the respective double-concentrated test solutions was pipetted into each well simultaneously.
Data were analyzed off-line using appropriate software e.g. Notocord-Hem (version 4.3).
The following parameters of the Ca^2′ transient morphology were measured: • beat rate (BR) • amplitude of the Ca^2+ transient (Amp), • CTD90: Ca^2+ transient duration at 90% (time to 90% of the initial base value). […]

[6] = molecular target: menin/MLL (terbium chelate-labeled menin, FITC-MBM1 peptide) (Homo sapiens (Human), UniProt O00255); assay: Menin/MLL homogenous time-resolved fluorescence (HTRF) assay; assay type: binding; conditions: HTRF-30 min incubation IC50, 30 min incubation;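 further: IC50 from percent inhibition of HTRF signal, normalized between wells without competitor and wells with a saturating competitor that displaces FITC-MBM1 from His-tagged menin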
menin/MLL (terbium chelate-labeled menin, FITC-MBM1 peptide), sequence (O00255 other isoform, or with tags, fused parts or gaps): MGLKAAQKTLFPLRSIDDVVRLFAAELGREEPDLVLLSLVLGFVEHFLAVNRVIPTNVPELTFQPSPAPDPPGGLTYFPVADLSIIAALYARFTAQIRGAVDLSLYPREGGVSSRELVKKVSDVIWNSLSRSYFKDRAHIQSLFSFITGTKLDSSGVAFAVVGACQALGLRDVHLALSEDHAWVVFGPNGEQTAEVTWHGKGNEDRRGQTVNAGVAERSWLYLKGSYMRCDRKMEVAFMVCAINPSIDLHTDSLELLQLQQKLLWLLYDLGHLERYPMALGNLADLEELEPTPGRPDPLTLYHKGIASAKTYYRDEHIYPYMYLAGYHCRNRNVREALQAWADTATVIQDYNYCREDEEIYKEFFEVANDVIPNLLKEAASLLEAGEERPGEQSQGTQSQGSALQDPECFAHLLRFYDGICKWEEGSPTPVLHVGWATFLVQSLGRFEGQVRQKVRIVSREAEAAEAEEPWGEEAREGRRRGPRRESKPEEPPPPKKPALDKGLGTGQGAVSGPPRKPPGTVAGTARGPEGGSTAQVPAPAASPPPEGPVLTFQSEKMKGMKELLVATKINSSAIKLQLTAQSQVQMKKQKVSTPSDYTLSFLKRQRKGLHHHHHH

[7] = molecular target: hERG potassium channel (Homo sapiens (Human), UniProt Q12809); assay: Effect on membrane potassium current IKr in hERG transfected CHO cells, Protocol 1 (QPatch); assay type: cell-based
hERG potassium channel, sequence (Q12809 whole entry): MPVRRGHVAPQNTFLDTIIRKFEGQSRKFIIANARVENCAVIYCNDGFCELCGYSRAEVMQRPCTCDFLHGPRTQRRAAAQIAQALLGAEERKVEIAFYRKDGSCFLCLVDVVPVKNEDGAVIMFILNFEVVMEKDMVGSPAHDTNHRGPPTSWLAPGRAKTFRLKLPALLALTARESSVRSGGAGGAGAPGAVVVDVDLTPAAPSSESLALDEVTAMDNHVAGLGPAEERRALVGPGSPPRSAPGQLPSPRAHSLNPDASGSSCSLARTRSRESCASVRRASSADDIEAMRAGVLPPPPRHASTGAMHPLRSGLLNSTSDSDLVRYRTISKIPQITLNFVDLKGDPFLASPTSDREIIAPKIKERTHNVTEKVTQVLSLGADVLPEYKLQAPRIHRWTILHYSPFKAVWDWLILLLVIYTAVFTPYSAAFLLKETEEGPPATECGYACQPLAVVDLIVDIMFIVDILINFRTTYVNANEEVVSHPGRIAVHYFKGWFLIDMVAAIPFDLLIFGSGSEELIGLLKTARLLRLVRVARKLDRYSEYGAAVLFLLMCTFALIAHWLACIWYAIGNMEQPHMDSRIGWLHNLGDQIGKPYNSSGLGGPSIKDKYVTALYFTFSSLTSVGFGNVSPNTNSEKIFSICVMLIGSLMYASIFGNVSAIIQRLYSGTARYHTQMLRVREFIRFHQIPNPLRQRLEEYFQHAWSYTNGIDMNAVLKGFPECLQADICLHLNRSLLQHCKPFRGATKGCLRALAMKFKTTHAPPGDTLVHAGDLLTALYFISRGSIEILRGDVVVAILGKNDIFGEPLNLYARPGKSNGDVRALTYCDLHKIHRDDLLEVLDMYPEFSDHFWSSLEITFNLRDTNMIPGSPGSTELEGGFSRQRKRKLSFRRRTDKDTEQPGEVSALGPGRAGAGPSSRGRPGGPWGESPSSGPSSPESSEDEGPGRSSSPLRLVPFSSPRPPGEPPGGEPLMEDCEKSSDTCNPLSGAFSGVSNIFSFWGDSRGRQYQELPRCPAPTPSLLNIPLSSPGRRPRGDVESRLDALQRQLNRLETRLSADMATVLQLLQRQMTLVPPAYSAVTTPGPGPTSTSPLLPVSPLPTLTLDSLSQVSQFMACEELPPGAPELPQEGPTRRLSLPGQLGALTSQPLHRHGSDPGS
Method: 8) Effect on the Membrane Potassium Current IKr in hERG Transfected Cell Lines
• CHO Chinese hamster ovary cell line • DMSO Dimethylsulfoxide • hERG human ether-á-go-go-related gene • IKr rapidly activating delayed-rectifier K^+ current Methods
Experiments were performed using CHO cells stably expressing the hERG potassium channel. Cells were grown at 37° C. and 5% CO2 in culture flasks in Ham's F12 Medium supplemented with 10% heat-inactivated fetal calf serum, hygromycin B (100 μg/ml) and geneticin (100 μg/ml). For use in the automated patch-clamp system QPatch (Sophion) cells were harvested to obtain cell suspension of single cells.
Solutions: The bath solution contained (in mM) 145 NaCl, 4 KCl, 10 glucose, 10 HEPES ((4-(2-hydroxyethyl)-1-piperazineethanesulfonic acid), 2 CaCl2 and 1 MgCl2 (pH 7.4 with NaOH). The pipette solution contained (in mM) 120 KCl, 10 EGTA (Ethylene glycol-bis(2-aminoethylether)-N,N,N′,N′-tetraacetic acid), 10 HEPES, 5.374 CaCl2 and 1.75 MgCl2 (pH 7.2 with KOH).
Patch-clamp experiments were performed in the voltage-clamp mode and whole-cell currents were recorded with an automated patch-clamp assay utilizing the QPatch system (Sophion). Current signals were amplified and digitized, stored and analyzed by using the QPatch assay software.
The holding potential was −80 mV. The hERG current (K^+-selective outward current) was determined as the maximal tail current at −40 mV after a 2 second depolarization to +60 mV. Pulse cycling rate was 15 s. A short pulse (90 ms) to −40 mV served as a baseline step to calculate the tail current amplitude. After establishing whole-cell configuration and a stability period, the solvent control (0.3% DMSO) was applied for 5 minutes followed by the test substance by four increasing concentrations of 3×10^−7 M, 3×10^−6 M, 10^−5 M and 3×10^−5 M. Each concentration of the test substance was applied twice. The effect of each concentration was determined after 5 min as an average current of 3 sequential voltage pulses. To determine the extent of block the residual current was compared with vehicle pre-treatment.
Concentration/response relations were calculated by non-linear least-squares fits to the individual data points. The half-maximal inhibiting concentration (IC50) was calculated by the fitting routine.

Row | SMILES | IC50 [1] | IC50 [2] | IC50 [4] | IC50 [6] | IC50 ([1]; Homo sapiens, MOLM-14, […]) | IC50 ([4]; Homo sapiens, MOLM-14, 48 h) | IC50 ([2]; Homo sapiens, OCI-AML-3, […]) | IC50 [3] | Color @ 0.1 μM (hazard score) [5] | Color @ 0.3 μM (hazard score) [5] | Color @ 1 μM (hazard score) [5] | Color @ 3 μM (hazard score) [5] | Color @ 10 μM (hazard score) [5] | Color @ 30 μM (hazard score) [5] | IC50 ([3]; Homo sapiens, […]) | IC50 [7]
1 | CCN(C(=O)c1cc(F)ccc1Oc1nncnc1N1CCC2(C1)CN([C@H](CCCN(C)C(=O)OC)C(C)C)C2)C(C)C [Compound 22, methyl (R)-(4-(6-(6-(2-(ethyl(isopropyl)carbamoyl)-4-fluorophenoxy)-1,2,4-triazin-5-yl)-2,6-diazaspiro[3.4]octan-2-yl)-5-methylhexyl)(methyl)carbamate] |  |  |  | 1.79 nM | 360 nM | ~760 nM |  |  |  |  |  |  |  |  | 12800 nM | 20900 nM
2 | CCN(C(=O)c1cc(F)ccc1Oc1nncnc1N1CCC2(C1)CN([C@H](CCCN(C)CCOC)C(C)C)C2)C(C)C [Compound 70a] |  |  |  |  |  |  |  |  | Green | Green | Green | Green | Green | yellow |  | 
3 | CCN(C(=O)c1cc(F)ccc1Oc1nncnc1N1CCC2(C1)CN(C(CCCO)C(C)C)C2)C(C)C (stereo not drawn) [Compound 49, N-ethyl-5-fluoro-2-((5-(2-(6-hydroxy-2-methylhexan-3-yl)-2,6-diazaspiro[3.4]octan-6-yl)-1,2,4-triazin-6-yl)oxy)-N-isopropylbenzamide] |  |  |  |  |  |  |  |  |  |  |  |  |  |  |  | > 30200 nM
4 | CCN(CCC[C@H](C(C)C)N1CC2(CCN(c3ncnnc3Oc3ccc(F)cc3C(=O)N(CC)C(C)C)C2)C1)CCOC [Compound 71, (R)-N-ethyl-2-((5-(2-(6-(ethyl(2-methoxyethyl)amino)-2-methylhexan-3-yl)-2,6-diazaspiro[3.4]octan-6-yl)-1,2,4-triazin-6-yl)oxy)-5-fluoro-N-isopropylbenzamide] |  |  |  |  | 560 nM | 380 nM | 1470 nM |  |  |  |  |  |  |  | 12800 nM | > 30200 nM
5 | COCCN(C)CCC[C@H](C(C)C)N1CC2(CCN(c3ccnnc3Oc3ccc(F)cc3C(=O)N(C(C)C)C(C)C)C2)C1 (single isomer, unassigned) [Compound 88, (*R)-5-fluoro-N,N-isopropyl-2-((4-(2-(6-((2-methoxyethyl)(methyl)amino)-methylhexan-3-yl)-2,6-diazaspiro[3.4]octan-6-yl)pyridazin-3-yl)oxy)benzamide oxalate] |  |  |  | 0.083 nM | 120 nM | 130 nM | 810 nM |  |  |  |  |  |  |  | 14000 nM | 

Further lines, with some results ahead:

Row | IC50 [1] | IC50 [2] | IC50 [4] | IC50 [6] | IC50 ([1]; Homo sapiens, MOLM-14, […]) | IC50 ([4]; Homo sapiens, MOLM-14, 48 h) | IC50 ([2]; Homo sapiens, OCI-AML-3, […]) | SMILES | IC50 [3] | Color @ 0.1 μM (hazard score) [5] | Color @ 0.3 μM (hazard score) [5] | Color @ 1 μM (hazard score) [5] | Color @ 3 μM (hazard score) [5] | Color @ 10 μM (hazard score) [5] | Color @ 30 μM (hazard score) [5] | IC50 ([3]; Homo sapiens, […]) | IC50 [7]
6 | 76 nM | 290 nM | 96 nM |  |  |  |  | CCN(C(=O)c1cc(F)ccc1Oc1nncnc1N1CCC2(C1)CN([C@H](CCCN(C)CCO)C(C)C)C2)C(C)C [Compound 286, (R)-N-ethyl-5-fluoro-2-((5-(2-(6-((2-hydroxyethyl)(methyl)amino)-2-methylhexan-3-yl)-2,6-diazaspiro[3.4]octan-6-yl)-1,2,4-triazin-6-yl)oxy)-N-isopropylbenzamide] | 22900 nM | Green | Green | Green | Green | Green | Green |  | 
7 |  |  |  |  | 64 nM |  | 220 nM | CCN(C(=O)c1cc(F)ccc1Oc1nncnc1N1CCC2(C1)CN([C@H](CCCNC)C(C)C)C2)C(C)C [Compound 398, (R)-N-ethyl-5-fluoro-N-isopropyl-2-((5-(2-(2-methyl-6-(methylamino)hexan-3-yl)-2,6-diazaspiro[3.4]octan-6-yl)-1,2,4-triazin-6-yl)oxy)benzamide] |  | Green | Green | Green | Green | Green | Green | > 15000 nM | 
8 |  |  |  | 0.51 nM | 290 nM | ~330 nM | 1090 nM | CCN(C(=O)c1cc(F)ccc1Oc1nncnc1N1CCC2(C1)CN([C@H](C[C@@H](CN(C)C)OC)C(C)C)C2)C(C)C (single isomer, unassigned) [Compound 315, 2-((5-(2-((3*R,5*S)-6-(dimethylamino)-5-methoxy-2-methylhexan-3-yl)-2,6-diazaspiro[3.4]octan-6-yl)-1,2,4-triazin-6-yl)oxy)-N-ethyl-5-fluoro-N-isopropylbenzamide fumarate] |  |  |  |  |  |  |  | > 15000 nM | 
9 |  |  |  | 1.02 nM | 160 nM | 270 nM | 130 nM | CCN(C(=O)c1cc(F)ccc1Oc1nncnc1N1CCC2(C1)CN([C@H](CCCN(C)C[C@H](O)COC)C(C)C)C2)C(C)C [Compound 285, N-ethyl-5-fluoro-2-((5-(2-((R)-6-(((S)-2-hydroxy-3-methoxypropyl)(methyl)amino)-2-methylhexan-3-yl)-2,6-diazaspiro[3.4]octan-6-yl)-1,2,4-triazin-6-yl)oxy)-N-isopropylbenzamide formate] |  |  |  |  |  |  |  | > 15000 nM | 
